Assay results as given in patent US9938262B2, “Benzamides” (Merck Patent GmbH, priority 2011, dated 2018).

Target: T1, FSHR (Homo sapiens, UniProt P23945)
T1 construct: expressed in transfected cells; host or cells: CHO (Cho-FSHR-LUC-1-1-43)
Assay: EC50 of cyclic AMP production in CHO FSHR cells + EC20 FSH (Assay A)
Type: cell-based
Conditions: Table 2; for EC50: CHO FSHR cells + EC20 FSH, read-out: Assay A EC50 of cyclic AMP production; for activation at 5 µM: 1 h, effect relative to maximum response of the FSH standard
Method in brief: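 cAMP HTRF ratio (665/620 nm) read after 1 h, 37 °C exposure of CHO-FSHR cells to compound in presence of EC20 FSH ([…]) and IBMX 200 μM. Responses given relative to FSH standard maximum; EC50 derived.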

T1 sequence (P23945 18-695): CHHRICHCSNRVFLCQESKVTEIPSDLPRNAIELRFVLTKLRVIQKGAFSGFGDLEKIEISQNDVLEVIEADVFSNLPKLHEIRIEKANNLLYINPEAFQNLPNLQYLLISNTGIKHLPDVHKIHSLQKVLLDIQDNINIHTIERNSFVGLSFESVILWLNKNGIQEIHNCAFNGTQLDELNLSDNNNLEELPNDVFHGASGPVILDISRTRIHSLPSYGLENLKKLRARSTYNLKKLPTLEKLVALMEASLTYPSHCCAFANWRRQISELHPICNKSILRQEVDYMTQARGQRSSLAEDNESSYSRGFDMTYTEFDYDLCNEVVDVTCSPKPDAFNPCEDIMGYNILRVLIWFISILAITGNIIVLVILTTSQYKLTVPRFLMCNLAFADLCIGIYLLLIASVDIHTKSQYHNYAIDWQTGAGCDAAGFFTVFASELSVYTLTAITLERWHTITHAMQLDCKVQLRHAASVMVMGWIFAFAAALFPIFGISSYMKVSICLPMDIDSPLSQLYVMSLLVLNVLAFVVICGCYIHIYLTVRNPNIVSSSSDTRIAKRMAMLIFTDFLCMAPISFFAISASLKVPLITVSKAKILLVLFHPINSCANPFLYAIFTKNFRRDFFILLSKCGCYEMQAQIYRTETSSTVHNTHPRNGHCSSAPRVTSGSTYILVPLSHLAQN
T1 sequence (P01215 25-116 partner): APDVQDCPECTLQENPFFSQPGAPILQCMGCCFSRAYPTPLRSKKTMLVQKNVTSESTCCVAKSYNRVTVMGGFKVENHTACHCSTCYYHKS
T1 sequence (P01225 19-129 partner): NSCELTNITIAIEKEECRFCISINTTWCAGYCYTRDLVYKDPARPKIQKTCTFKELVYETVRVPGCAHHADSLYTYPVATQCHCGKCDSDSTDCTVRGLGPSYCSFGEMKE

## Cc1ccccc1N1CCN(c2ccc(C(N)=O)cc2NC(=O)c2ccco2)CC1 [Compound 283]
  EC50: 1 to 10 µM

## Cc1ccccc1N1CCN(c2ccc(C(=O)NCCCN3CCCC3=O)cc2NC(=O)c2cc(C3CC3)n[nH]2)CC1 [Compound 284]
  EC50: 0.1 to 1 µM

## Cc1ccccc1N1CCN(c2ccc(C(=O)NCCCN3CCCC3=O)cc2NC(=O)c2nc(C3CC3)cs2)CC1 [Compound 285]
  EC50: 0.1 to 1 µM

## Cc1ccccc1N1CCN(c2ccc(C(=O)NCCN3CCCC3=O)cc2NC(=O)c2coc(C3CC3)n2)CC1 [Compound 288]
  EC50: 0.1 to 1 µM

## Cc1ccccc1N1CCN(c2ccc(C(=O)NCCCN3C(=O)CSC3=O)cc2NC(=O)c2coc(C3CC3)n2)CC1 [Compound 289]
  EC50: 0.1 to 1 µM

## COc1ccc(CNC(=O)c2ccc(N3CCN(c4ccccc4C)CC3)c(NC(=O)c3coc(C4CC4)n3)c2)cc1OC [Compound 290]
  EC50: 0.1 to 1 µM

## Cc1ccccc1N1CCN(c2ccc(C(=O)NCCCn3ccnc3)cc2NC(=O)c2coc(C3CC3)n2)CC1 [Compound 291]
  EC50: 0.1 to 1 µM

## Cc1ccccc1N1CCN(c2ccc(C(=O)NCCCn3ccnc3C)cc2NC(=O)c2coc(C3CC3)n2)CC1 [Compound 292]
  EC50: 0.1 to 1 µM

## Cc1ccccc1N1CCN(c2ccc(C(=O)NCCc3c[nH]cn3)cc2NC(=O)c2coc(C3CC3)n2)CC1 [Compound 293]
  EC50: 0.1 to 1 µM

## Cc1ccccc1N1CCN(c2ccc(C(=O)NCC(=O)NC3CCCC3)cc2NC(=O)c2coc(C3CC3)n2)CC1 [Compound 294]
  EC50: 1 to 10 µM

## COc1cc(CNC(=O)c2ccc(N3CCN(c4ccccc4C)CC3)c(NC(=O)c3coc(C4CC4)n3)c2)cc(OC)c1 [Compound 295]
  EC50: 0.1 to 1 µM

## Cc1ccccc1N1CCN(c2ccc(C(=O)NCCCN3C(=O)CN(C)C3=O)cc2NC(=O)c2coc(C3CC3)n2)CC1 [Compound 296]
  EC50: 0.1 to 1 µM

## Cc1ccccc1N1CCN(c2ccc(C(=O)NC3CCN(S(C)(=O)=O)CC3)cc2NC(=O)c2coc(C3CC3)n2)CC1 [Compound 297]
  EC50: 0.1 to 1 µM

## Cc1ccc(C(=O)Nc2cc(C(=O)NCCCN3CCCC3=O)ccc2N2CCN(c3c(C)cccc3C)CC2)o1 [Compound 298]
  EC50: 1 to 10 µM

## Cc1cccc(C)c1N1CCN(c2ccc(C(=O)NCCCN3CCCC3=O)cc2NC(=O)c2coc(C3CC3)n2)CC1 [Compound 299]
  EC50: 1 to 10 µM

## Cc1nc(C(=O)Nc2cc(C(=O)NCCc3cnc[nH]3)ccc2N2CCN(c3ccccc3C)CC2)cs1 [Compound 301]
  EC50: 1 to 10 µM

## Cc1ccccc1N1CCN(c2ccc(C(=O)NCCc3cnc[nH]3)cc2NC(=O)C2CC2)CC1 [Compound 302]
  EC50: 1 to 10 µM

## Cc1ccc(C(=O)Nc2cc(C(=O)NCCCO)ccc2N2CCN(c3ccccc3C)CC2)o1 [Compound 303]
  EC50: 1 to 10 µM

## Cc1ccccc1N1CCN(c2ccc(C(=O)NCCN3C(=O)CCC3=O)cc2NC(=O)c2ccco2)CC1 [Compound 305]
  EC50: < 0.1 µM

## Cc1ccccc1N1CCN(c2ccc(C(=O)NCCCN3CCCC3=O)cc2NC(=O)c2cc(C3CC3)on2)CC1 [Compound 308]
  EC50: 0.1 to 1 µM

## Cc1ccccc1N1CCN(c2ccc(C(=O)N[C@H]3O[C@@H](CO)[C@@H]4OC(C)(C)O[C@@H]43)cc2NC(=O)c2coc(C3CC3)n2)CC1 [Compound 309]
  EC50: 0.1 to 1 µM

## Cc1cc(F)ccc1N1CCN(c2ccc(C(=O)NCCCN3CCCC3=O)cc2NC(=O)c2coc(C3CC3)n2)CC1 [Compound 312]
  EC50: 0.1 to 1 µM

## O=C(NCCCN1CCCC1=O)c1ccc(N2CCN(c3ccccc3Br)CC2)c(NC(=O)c2coc(C3CC3)n2)c1 [Compound 313]
  EC50: 0.1 to 1 µM

## CCOC(=O)c1c[nH]nc1NC(=O)c1ccc(N2CCN(c3ccccc3C)CC2)c(NC(=O)c2coc(C3CC3)n2)c1 [Compound 314]
  activation at 5 µM: 38%

## Cc1ccccc1N1CCN(c2ccc(C(=O)NCCCN3CCCC3=O)cc2NC(=O)c2cc(C3CC3)nn2C)CC1 [Compound 315]
  activation at 5 µM: 47%

## Cc1ccccc1N1CCN(c2ccc(C(=O)NCCc3cn(C)cn3)cc2NC(=O)c2coc(C3CC3)n2)CC1 [Compound 317]
  EC50: 0.1 to 1 µM

## CC(=O)NCCCCNC(=O)c1ccc(N2CCN(c3ccccc3C)CC2)c(NC(=O)c2coc(C3CC3)n2)c1 [Compound 318]
  EC50: 0.1 to 1 µM
